Data as given in patent US10287301B2 (Achillion Pharmaceuticals, Inc., priority 2015, dated 2019).
Like-named read-outs stand apart in the source and are kept apart here.

Biological target: Human Factor D (Homo sapiens (Human), UniProt P00746)
Assay: Human Factor D Assay
Assay type: biochemical
Outline: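 Serum-purified human Factor D (80 nM final) was preincubated with test compound at various concentrations for 5 min at room temperature in 50 mM Tris, 1M NaCl, pH 7.5. Z-L-Lys-SBzl and DTNB were then added at 100 μM each. IC50 came from nonlinear regression of reaction rates versus compound concentration.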

[1] = Human Factor D assay of Example 8, Table 2, read-out: IC50

Human Factor D, sequence (P00746 26-253): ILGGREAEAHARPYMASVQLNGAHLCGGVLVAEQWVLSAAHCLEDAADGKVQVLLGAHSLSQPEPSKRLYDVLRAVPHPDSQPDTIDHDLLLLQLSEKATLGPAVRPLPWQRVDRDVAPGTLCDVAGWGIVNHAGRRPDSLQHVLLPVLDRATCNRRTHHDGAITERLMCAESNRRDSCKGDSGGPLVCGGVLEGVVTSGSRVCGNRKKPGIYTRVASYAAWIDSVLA

For `CC(=O)c1nn(CC(=O)N2[C@@H]3C[C@@H]3C[C@H]2C(=O)Nc2cccc(OC(F)(F)F)c2F)c2ccc(-c3cnc4ccnn4c3)cc12` [Compound 239, (1R,3S,5R)-2-(2-(3-acetyl-5-(pyrazolo[1,5-a]pyrimidin-6-yl)-1H-indazol-1-yl)acetyl)-N-(2-fluoro-3-(trifluoromethoxy)phenyl)-2-azabicyclo[3.1.0] hexane-3-carboxamide], the IC50 [1] was < 1000 nM.
In the case of `CC(=O)c1nn(CC(=O)N2[C@@H]3C[C@@H]3C[C@H]2C(=O)NCc2cccc(Cl)c2F)c2ccc(-c3cnc4ccnn4c3)cc12` [Compound 240, (1R,3S,5R)-2-(2-(3-acetyl-5-(pyrazolo[1,5-a]pyrimidin-6-yl)-1H-indazol-1-yl)acetyl)-N-(3-chloro-2-fluorobenzyl)-2-azabicyclo[3.1.0] hexane-3-carboxamide], the IC50 [1] is reported as < 1000 nM.
In the case of `CC(=O)c1nn(CC(=O)N2C[C@H](F)C[C@H]2C(=O)Nc2cccc(Br)n2)c2ccc(-c3cnc4c(c3)ncn4C)cc12` [Compound 241, (2S,4R)-1-(2-(3-acetyl-5-(3-methyl-3H-imidazo[4,5-b]pyridin-6-yl)-1H-indazol-1-yl)acetyl)-N-(6-bromopyridin-2-yl)-4-fluoropyrrolidine-2-carboxamide], the IC50 [1] is reported as < 1000 nM.
With `CC(=O)c1nn(CC(=O)N2C[C@H](F)C[C@H]2C(=O)Nc2cccc(Br)n2)c2ccc(-c3ccn4nccc4n3)cc12` [Compound 242, (2S,4R)-1-(2-(3-acetyl-5-(pyrazolo[1,5-a]pyrimidin-5-yl)-1H-indazol-1-yl)acetyl)-N-(6-bromopyridin-2-yl)-4-fluoropyrrolidine-2-carboxamide] the IC50 [1] was < 1000 nM.
With `CC(=O)c1nn(CC(=O)N2C[C@H](F)C[C@H]2C(=O)Nc2cccc(Br)n2)c2ccc(-c3cnc4cc(C)nn4c3)cc12` [Compound 243, (2S,4R)-1-(2-(3-acetyl-5-(2-methylpyrazolo[1,5-a]pyrimidin-6-yl)-1H-indazol-1-yl)acetyl)-N-(6-bromopyridin-2-yl)-4-fluoropyrrolidine-2-carboxamide] the IC50 [1] was < 1000 nM.
In the case of `CC(=O)c1nn(CC(=O)N2C[C@H](F)C[C@H]2C(=O)Nc2cccc(Br)n2)c2ccc(N3CCn4c(nnc4C(F)(F)F)C3)cc12` [Compound 244, (2S,4R)-1-(2-(3-acetyl-5-(3-(trifluoromethyl)-5,6-dihydro-[1,2,4]triazolo[4,3-a]pyrazin-7(8H)-yl)-1H-indazol-1-yl)acetyl)-N-(6-bromopyridin-2-yl)-4-fluoropyrrolidine-2-carboxamide], the IC50 [1] is reported as < 1000 nM.
In the case of `CC(=O)c1nn(CC(=O)N2C[C@H](F)C[C@H]2C(=O)Nc2cccc(Br)n2)c2ccc(-c3cnc4ncccn34)cc12` [Compound 245, (2S,4R)-1-(2-(3-acetyl-5-(imidazo[1,2-a]pyrimidin-3-yl)-1H-indazol-1-yl)acetyl)-N-(6-bromopyridin-2-yl)-4-fluoropyrrolidine-2-carboxamide], the IC50 [1] is reported as < 1000 nM.
For `CSc1cccc(NC(=O)[C@@H]2C[C@@H](F)CN2C(=O)Cn2nc(C(C)=O)c3cc(-c4cnc(C)nc4)ccc32)n1` [Compound 246, (2S,4R)-1-(2-(3-acetyl-5-(2-methylpyrimidin-5-yl)-1H-indazol-1-yl)acetyl)-4-fluoro-N-(6-(methylthio)pyridin-2-yl)pyrrolidine-2-carboxamide], the IC50 [1] was < 1000 nM.
In the case of `CC(=O)c1nn(CC(=O)N2C[C@H](F)C[C@H]2C(=O)Nc2cccc(F)n2)c2ccc(-c3cnc(C)nc3)cc12` [Compound 247, (2S,4R)-1-(2-(3-acetyl-5-(2-methylpyrimidin-5-yl)-1H-indazol-1-yl)acetyl)-4-fluoro-N-(6-fluoropyridin-2-yl)pyrrolidine-2-carboxamide], the IC50 [1] is reported as < 1000 nM.
In the case of `CC(=O)c1nn(CC(=O)N2C[C@H](F)C[C@H]2C(=O)Nc2cccc(Br)n2)c2ccc(-c3ccc4ncnn4c3)cc12` [Compound 248, (2S,4R)-1-(2-(5-([1,2,4]triazolo[1,5-a]pyridin-6-yl)-3-acetyl-1H-indazol-1-yl)acetyl)-N-(6-bromopyridin-2-yl)-4-fluoropyrrolidine-2-carboxamide], the IC50 [1] is reported as < 1000 nM.
For `CC(=O)c1nn(CC(=O)N2C[C@@H](O)C[C@H]2C(=O)Nc2cccc(Br)n2)c2ccc(-c3cnc(C)nc3)cc12` [Compound 249, (2S,4S)-1-(2-(3-Acetyl-5-(2-methylpyrimidin-5-yl)-1H-indazol-1-yl)acetyl)-N-(6-bromopyridin-2-yl)-4-hydroxypyrrolidine-2-carboxamide], the IC50 [1] was < 1000 nM.
With `CC(=O)c1nn(CC(=O)N2CC(=O)C[C@H]2C(=O)Nc2cccc(Br)n2)c2ccc(-c3cnc(C)nc3)cc12` [Compound 250, (S)-1-(2-(3-Acetyl-5-(2-methylpyrimidin-5-yl)-1H-indazol-1-yl)acetyl)-N-(6-bromopyridin-2-yl)-4-oxopyrrolidine-2-carboxamide] the IC50 [1] was < 1000 nM.
In the case of `NC(=O)c1nn(CC(=O)N2C[C@H](F)C[C@H]2C(=O)Nc2cccc(Br)n2)c2ccc(-c3[nH]nnc3-c3cncnc3)cc12` [Compound 251, 1-(2-((2S,4R)-2-(6-bromopyridin-2-ylcarbamoyl)-4-fluoropyrrolidin-1-yl)-2-oxoethyl)-5-(4-(pyrimidin-5-yl)-1H-1,2,3-triazol-5-yl)-1H-indazole-3-carboxamide], the IC50 [1] is reported as < 1000 nM.
With `COCCN(C)CCN1CC(NC(=O)[C@@H]2C[C@@H](F)CN2C(=O)Cn2nc(C(C)=O)c3cc(-c4cnc(C)nc4)ccc32)CC1=O` (stereo partly drawn) [Compound 254, (2S,4R)-1-(2-(3-acetyl-5-(2-methylpyrimidin-5-yl)-1H-indazol-1-yl)acetyl)-4-fluoro-N-(1-(2-((2-methoxyethyl)(methyl)amino)ethyl)-5-oxopyrrolidin-3-yl)pyrrolidine-2-carboxamide] the IC50 [1] was > 10000 nM.
For `CC(=O)c1nn(CC(=O)N2CC(F)(F)C[C@H]2C(=O)Nc2cccc(Br)n2)c2ccc(-c3cnc(C)nc3)cc12` [Compound 255, (S)-1-(2-(3-acetyl-5-(2-methylpyrimidin-5-yl)-1H-indazol-1-yl)acetyl)-N-(6-bromopyridin-2-yl)-4,4-difluoropyrrolidine-2-carboxamide], the IC50 [1] was < 1000 nM.
With `CC(=O)c1nn(CC(=O)N2C[C@H](F)C[C@H]2C(=O)Nc2cccc(OC(F)(F)F)c2F)c2ccc(-c3cnc4cc(C)nn4c3)cc12` [Compound 256, (2S,4R)-1-(2-(3-acetyl-5-(2-methylpyrazolo[1,5-a]pyrimidin-6-yl)-1H-indazol-1-yl)acetyl)-4-fluoro-N-(2-fluoro-3-(trifluoromethoxy)phenyl)pyrrolidine-2-carboxamide] the IC50 [1] was < 1000 nM.
For `CC(=O)c1nn(CC(=O)N2[C@@H]3C[C@@H]3C[C@H]2C(=O)Nc2cccc(Br)n2)c2ccc(-c3cnc4cc(C)nn4c3)cc12` [Compound 257, (1R,3S,5R)-2-(2-(3-acetyl-5-(2-methylpyrazolo[1,5-a]pyrimidin-6-yl)-1H-indazol-1-yl)acetyl)-N-(6-bromopyridin-2-yl)-2-azabicyclo[3.1.0] hexane-3-carboxamide], the IC50 [1] was < 1000 nM.
With `CC(=O)c1nn(CC(=O)N2C[C@H](F)C[C@H]2C(=O)Nc2nc(Cl)cs2)c2ccc(-c3cnc(C)nc3)cc12` [Compound 258, (2S,4R)-1-(2-(3-acetyl-5-(2-methylpyrimidin-5-yl)-1H-indazol-1-yl)acetyl)-N-(4-chlorothiazol-2-yl)-4-fluoropyrrolidine-2-carboxamide] the IC50 [1] was < 1000 nM.
In the case of `CC(=O)c1nn(CC(=O)N2C[C@H](F)C[C@H]2C(=O)Nc2cccc(Br)n2)c2ccc(-c3cnc(C4CC4)nc3)cc12` [Compound 259], the IC50 [1] is reported as < 1000 nM.
With `CC(=O)c1nn(CC(=O)N2C[C@H](F)C[C@H]2C(=O)Nc2cccc(Br)n2)c2ccc(-c3cnc(N)nc3)cc12` [Compound 260, (2S,4R)-1-(2-(3-acetyl-5-(2-aminopyrimidin-5-yl)-1H-indazol-1-yl)acetyl)-N-(6-bromopyridin-2-yl)-4-fluoropyrrolidine-2-carboxamide] the IC50 [1] was < 1000 nM.
`CC(=O)c1nn(CC(=O)N2C[C@H](F)C[C@H]2C(=O)NC2CCN(C(=O)c3cn[nH]c3)CC2)c2ccc(-c3cnc(C)nc3)cc12` [Compound 261, (2S,4R)-N-(1-(1H-pyrazole-4-carbonyl)piperidin-4-yl)-1-(2-(3-acetyl-5-(2-methylpyrimidin-5-yl)-1H-indazol-1-yl)acetyl)-4-fluoropyrrolidine-2-carboxamide] gave an IC50 of 1000 to 10000 nM.
With `CC(=O)c1nn(CC(=O)N2C[C@H](F)C[C@H]2C(=O)Nc2cccc(Br)n2)c2ccc(-c3cnc4c(C#N)c(C)nn4c3)cc12` [Compound 262, (2S,4R)-1-(2-(3-acetyl-5-(3-cyano-2-methylpyrazolo[1,5-a]pyrimidin-6-yl)-1H-indazol-1-yl)acetyl)-N-(6-bromopyridin-2-yl)-4-fluoropyrrolidine-2-carboxamide] the IC50 [1] was < 1000 nM.
In the case of `CC(=O)c1nn(CC(=O)N2C[C@H](F)C[C@H]2C(=O)Nc2cccc(Br)n2)c2ccc(-c3cnc4c(C#N)cnn4c3)cc12` [Compound 263, (2S,4R)-1-(2-(3-acetyl-5-(3-cyanopyrazolo[1,5-a]pyrimidin-6-yl)-1H-indazol-1-yl)acetyl)-N-(6-bromopyridin-2-yl)-4-fluoropyrrolidine-2-carboxamide], the IC50 [1] is reported as < 1000 nM.
For `CC(=O)c1nn(CC(=O)N2C[C@H](F)C[C@H]2C(=O)Nc2cccc(C(F)(F)F)n2)c2ccc(-c3cnc4cc(C)nn4c3)cc12` [Compound 264, (2S,4R)-1-(2-(3-acetyl-5-(2-methylpyrazolo[1,5-a]pyrimidin-6-yl)-1H-indazol-1-yl)acetyl)-4-fluoro-N-(6-(trifluoromethyl)pyridin-2-yl)pyrrolidine-2-carboxamide], the IC50 [1] was < 1000 nM.
With `CC(=O)c1nn(CC(=O)N2C[C@H](F)C[C@H]2C(=O)Nc2cccc(C#N)n2)c2ccc(-c3cnc4cc(C)nn4c3)cc12` [Compound 265, (2S,4R)-1-(2-(3-acetyl-5-(2-methylpyrazolo[1,5-a]pyrimidin-6-yl)-1H-indazol-1-yl)acetyl)-N-(6-cyanopyridin-2-yl)-4-fluoropyrrolidine-2-carboxamide] the IC50 [1] was < 1000 nM.
`CC(=O)c1nn(CC(=O)N2C[C@H](F)C[C@H]2C(=O)Nc2cccc(Br)n2)c2ccc(-c3cnc(C)nc3C)cc12` [Compound 266, (2S,4R)-1-(2-(3-acetyl-5-(2,4-dimethylpyrimidin-5-yl)-1H-indazol-1-yl)acetyl)-N-(6-bromopyridin-2-yl)-4-fluoropyrrolidine-2-carboxamide] was tested, and the IC50 [1] was < 1000 nM.
